Results taken from PMC4157579, “Lysine Acetylation Controls Local Protein Conformation by Influencing Proline Isomerization” (Molecular Cell, 2014).
Ends that are not written are not given here.

How the values were obtained:
[1] = tested on: Spt7 bromodomain (residues 363–619); experiment: SPR binding of H3 peptides to immobilized Spt7 bromodomain; design: species or system yeast; conditions: for Binding to Spt7 bromodomain: SPR, Biacore T100/T200, 25°C, peptides 1-200 µM in HBS-P+, NTA chip-captured His-tagged bromodomain, 1:1 model, Figure 6A, n = 2–11
Text: (§1) We developed a second assay that involves monitoring the effect of the P16V substitution on the binding of the Spt7 bromodomain to an H3 peptide modified by acetylation at K14 and/or K18 using surface plasmon resonance (SPR) (Figures 6A, S4A, and S4B) or by pull downs (Figures 6B and S4C). Bromodomains are acetyl-lysine binding domains, found in a number of chromatin-associated proteins ([Taverna et al., 2007]) including Spt7. The function and binding specificity of the Spt7 bromodomain are currently unknown, but it preferentially interacts with hyperacetylated histones in vitro ([Hassan et al., 2007]). […] The binding of the Spt7 bromodomain to the P16V-substituted K18ac peptide improved binding by ∼2-fold. […] We reasoned that this could reflect an effect of the side chain on binding or an influence on the conformation of the A15-P16 bond. […] The corollary of this is that acetylation of K14 would correlate with the A15-P16 bond in the trans configuration, supporting ideas that the peptidyl-prolyl bond conformation is mainly determined by local effects in proteins ([Reimer et al., 1998]).
(§2) Figure 6 K14ac Promotes P16trans (A) Relative binding ± SEM (n = 2–11) assessed by surface plasmon resonance of purified recombinant Spt7 bromodomain (residues 363–619) to the indicated H3 peptides (11–26). (B) Coomassie-stained gel showing a pull-down experiment, quantified relative to the K18ac peptide, with the indicated H3 peptides and the purified recombinant Spt7 bromodomain (n = 3). (C) A chymotrypsin-coupled assay for proline isomers using synthetic hexamers based on GGKAPF-pNA (unmodified). pNA is released by chymotrypsin cleavage only from the trans-proline-containing peptide. (D) K14ac and substitutions at K14 influence isomerization at A15-P16 and pNA release, expressed as mean initial rate ± SEM (n = 4–5) over the first 0.6–10.2 s of the reaction. (E) Schematic showing how K14ac or the K14R substitution influence A15-P16 conformation. (F) Schematic showing how dynamic K14ac influences A15-P16 conformation and K4me3 (K4 and K14 denote that these residues are not trimethylated or acetylated respectively). (G) The balance of positive-acting factors (right panel) and negative-acting factors (left panel) controls levels of K4me3 at individual genes. […] See also Figure S4. […]
(n=5771) with the ratios of H3-normalised K4me3 in the K14A and P16V strains relative to the WT strain. Genes with ratios > 2 (n = 7 and 4 for K14A/WT and P16V/WT respectively) have been removed for clarity. Highlighted are the genes with the 200 highest and lowest ratios selected for further analysis (K14/P16-independent and K14/P16-dependent gene classes respectively). (C) Overlap (%) between the four selected gene classes from Figure S3B and the genes temporally expressed during the yeast metabolic cycle (YMC: OX, oxidative; R/B, reductive building; R/C, reductive charging phase), induced/repressed by the environmental stress response (ESR), classed as ribosomal protein genes (RPGs) or ribosome biogenesis genes (Ribis), or regulated predominantly by SAGA or TFIID. […]
YMC and ESR expression data were taken from (Tu et al., 2005) and (Gasch et al., 2000) respectively. SAGA/TFIID-regulated genes were obtained from (Huisinga and Pugh, […]
Figure S4. (Related to Figure 6)
(A) Surface plasmon resonance (SPR) affinity fits for the indicated H3 peptides encompassing residues 11-26 binding to the Spt7 bromodomain (residues 363-619). Also shown is a typical sensorgram of H3 peptide binding to the Spt7 bromodomain […]
values ± SEM for Spt7 binding to variously-modified H3 peptides. (C) A peptide pull-down experiment with a range of H3 peptides and the WT or substituted Spt7 bromodomain […]
Peptides for bromodomain interaction studies
Peptides were synthesized at GL Biochem (Shanghai) LTD, China and Proteogenix, France.
(§3) Purity was determined with MALDI-TOF mass spectrometry and HPLC and the peptides used […]
The peptide sequences are listed in the […]

[2] = tested on: Spt7 bromodomain (residues 363–619); experiment: Peptide pull-down with Spt7 bromodomain; format: binding, yeast; conditions: for Binding to Spt7 bromodomain: SulfoLink resin, bromodomain 30 µg/ml, 2 h at 4°C, Coomassie gel, relative to K18ac peptide, Figure 6B, n = 3
Text: as §1, §2
(n=5771) with the ratios of H3-normalised K4me3 in the K14A and P16V strains relative to the WT strain. Genes with ratios > 2 (n = 7 and 4 for K14A/WT and P16V/WT respectively) have been removed for clarity. Highlighted are the genes with the 200 highest and lowest ratios selected for further analysis (K14/P16-independent and K14/P16-dependent gene classes respectively). […]
as §3

[3] = tested on: bromodomain carrying alanine substitutions (Y500A/Y520A/N521A); experiment: Peptide pull-down with substituted Spt7 bromodomain; format: binding, yeast; conditions: bromodomain with alanine at Y500, Y520 and N521, Figure S4C
Text: as §1, with “1998]). […]” for “1998]).”
bin expressed as a proportion of the total K4me3 across the gene. […] P values were calculated from a simulated probability distribution curve. […]
as §3

[4] = target: T1, Spt7 bromodomain (residues 363–619) (UniProt P35177 363-619); experiment: SPR; peptides binding to immobilized Spt7 bromodomain; Biacore T100 and T200, 25°C; 1:1 binding model; relative binding; conditions: both partners purified
T1 construct: Spt7, bromodomain construct, amino acids 363-619; also called purified recombinant Spt7 bromodomain; source: recombinant, expressed and purified as described (Boubriak et al., 2009)
T1 sequence (looked up): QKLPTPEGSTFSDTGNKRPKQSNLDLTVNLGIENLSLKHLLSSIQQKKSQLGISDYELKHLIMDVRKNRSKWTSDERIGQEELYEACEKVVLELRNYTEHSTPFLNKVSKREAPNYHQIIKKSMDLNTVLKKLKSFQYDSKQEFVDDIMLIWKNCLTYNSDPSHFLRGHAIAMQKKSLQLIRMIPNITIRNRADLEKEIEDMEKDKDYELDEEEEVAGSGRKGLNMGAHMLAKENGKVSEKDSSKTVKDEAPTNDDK

Molecule: TGG(Kac)APR(Kac)QLASKAARC [peptide acetylated at both K14 and K18]
- Binding to Spt7 bromodomain [1]: binding to the Spt7 bromodomain similar to the P16V-K18ac peptide

Molecule: TGG(Kac)APRKQLASKAARC [peptide acetylated at K14, H3 peptide (11–26) acetylated at K14, for bromodomain studies]
- Binding to Spt7 bromodomain [2]: lack of binding
- Binding to Spt7 bromodomain [1]: lack of binding

Molecule: TGGKAPR(Kac)QLASKAARC [K18ac, H3 peptide (11–26) acetylated at K18]
- Binding to Spt7 bromodomain [2]: specifically recognized acetylated K18
- Enrichment of binding over the unmodified peptide ([2]; WT versus Y500A/Y520A/N521A bromodomain, Figure S4C): enriched
- Binding to Spt7 bromodomain [1]: specifically recognized acetylated K18
- Binding to substituted Spt7 bromodomain [3]: lack of binding

Molecule: TGGKAPRKQLASKAARC [unmodified H3 peptide, H3 peptide (11–26), unmodified, for bromodomain studies]
- Binding to Spt7 bromodomain [2]: lack of binding
- Binding to Spt7 bromodomain [1]: lack of binding

Molecule: TGGKAVR(Kac)QLASKAARC [P16V-K18ac, H3 peptide (11–26), P16V, acetylated K18]
- Improvement of binding to Spt7 bromodomain on P16V substitution ([1]; P16V-substituted versus K18ac peptide, SPR (text does not say whether SPR or pull-down), 25°C): ~2 fold

Molecule: TGGRAPR(Kac)QLASKAARC [K14R-K18ac, H3 peptide (11–26), K14R, acetylated K18]
- Binding to Spt7 bromodomain [1]: no binding was observed

Molecule: TGGRAVR(Kac)QLASKAARC [valine substitution at P16 in the K14R-K18ac peptide]
- Binding to Spt7 bromodomain [1]: restored binding at levels between the P16V-K18ac and K18ac peptides

B1: K14R-K18ac H3 peptide (11–26) with a valine substitution at P16 (peptide, UniProt P61830 12-27, looked up)
peptide: TGGRAVRK(Ac)QLASKAAR
notes: histone H3, residues 11-26; also called K14R-P16V-K18ac peptide; source: synthetic peptide (GL Biochem and Proteogenix)
- binding result [4]: binds

B2: P16V-substituted K18ac H3 peptide (11–26) (peptide, UniProt P61830 12-27, looked up)
peptide: TGGKAVRK(Ac)QLASKAAR
notes: histone H3, residues 11-26; also called P16V-K18ac peptide; P16V-K18ac; source: synthetic peptide (GL Biochem and Proteogenix)
- fold change of binding against the K18ac peptide [4]: ~2 fold
